{"source": "patent US20080269162A1", "about": "“Novel Medicaments for Anti-Retroviral Treatments” (priority 2006, published 2008)", "key": {"[1]": {"system": "NDK virus", "assay": "Number of syncitia in MT4 cell culture infected by NDK virus", "type": "cell-based, HIV", "design": "key to Number of Syncitia in the Culture (wells), J3 / Number of Syncitia in the Culture (wells), J4 / Number of Syncitia in the Culture (wells), J5 / Number of Syncitia in the Culture (wells), J6: the absence of syncitia is indicated by a minus (−) sign; the (+), +, ++, ++T signs indicate an increasing number of syncitia in each well; the (+), +, ++, ++T signs indicate an increasing number of syncitia in each well; the (+), +, ++, ++T signs indicate an increasing number of syncitia in each well; the (+), +, ++, ++T signs indicate an increasing number of syncitia in each well; The indication “T” indicates the death of the cells", "conditions": "10 μg/mL; for Number of Syncitia in the Culture (wells), J3: day 3; for Number of Syncitia in the Culture (wells), J4: day 4; for Number of Syncitia in the Culture (wells), J5: day 5; for Number of Syncitia in the Culture (wells), J6: day 6", "description": "Then infection of the cells was carried out by adding to each well, with the exception of those wells being used as control cells, 50 μL of previously titrated virus dilution.\nAfter an additional hour of incubation, the plate was centrifuged and the supernatant containing the residual virus was discarded.\nAfter 3 days of culture, the cells were diluted to half and the syncitia were observed using the inverse microscope from day 3 to day 7 after having been placed in suspension.\nIn the third case, the MT4 cell culture was preincubated for one hour at 37° C., then the cells were infected, the whole was subjected to incubation for one hour at 37° C., then to centrifugation with the elimination of the supernatant containing the virus that had not penetrated into the cells.\nIn each of the four types of experiments that have just been described, and as previously indicated, the cells were diluted to half after three days of culture and then the syncitia were observed using the inverted microscope from day 3 to day 7.\nIn the experiments described in greater detail hereinafter, the absence of syncitia is indicated by a minus (−) sign and the (+), +, ++, ++T signs indicate an increasing number of syncitia in each well.\nThe indication “T” indicates the death of the cells."}, "[2]": {"system": "CEM cells", "assay": "In vitro cytotoxicity, number of CEM cells"}, "[3]": {"system": "RT of the UG92029 virus", "assay": "Direct inhibitory action on RT of the UG92029 virus", "type": "biochemical, HIV", "conditions": "viral concentration corresponding to RT activity of 220,000 dpm, FIG. 7", "from_the_text": "(§1) In order to perform these measurements, the method described in detail hereinbefore was followed (Example 2)."}, "[4]": {"target": "T1, RT of the NDK virus (Human immunodeficiency virus type 1 group M subtype D, UniProt P18802)", "T1 construct": "host or cells: virus preparation (native virion RT)", "assay": "Direct inhibitory action on RT of the NDK virus", "type": "biochemical, HIV", "conditions": "viral concentration corresponding to RT activity of 81,000 dpm, FIG. 9", "from_the_text": "as §1"}, "[5]": {"system": "RT of the PIC CH virus", "assay": "Direct inhibitory action on RT of the PIC CH virus", "type": "biochemical, HIV", "conditions": "viral concentration corresponding to RT activity of 105,000 dpm, FIG. 8", "from_the_text": "as §1"}, "[6]": {"conditions": "Continuous, before, during and after infection"}}, "note": "Values joined by “and” are separate entries in the source; they are usually repeats but may differ in a detail not shown here. Equal entries are not always repeated.", "data": [{"substance": "Dextran sulphate", "values": [{"measurement": "Number of Syncitia in the Culture (wells), J3", "setting": "[1]; After infection", "value": "−"}, {"measurement": "Number of Syncitia in the Culture (wells), J4", "setting": "[1]; After infection", "value": "− and +"}, {"measurement": "Number of Syncitia in the Culture (wells), J5", "setting": "[1]; After infection", "value": "− and ++"}, {"measurement": "Number of Syncitia in the Culture (wells), J6", "setting": "[1]; After infection", "value": "− and T"}, {"measurement": "Number of Syncitia in the Culture (wells), J3", "setting": "[1]; Before infection", "value": "−"}, {"measurement": "Number of Syncitia in the Culture (wells), J4", "setting": "[1]; Before infection", "value": "−"}, {"measurement": "Number of Syncitia in the Culture (wells), J5", "setting": "[1]; Before infection", "value": "−"}, {"measurement": "Number of Syncitia in the Culture (wells), J6", "setting": "[1]; Before infection", "value": "−"}, {"measurement": "Number of Syncitia in the Culture (wells), J3", "setting": "[1]; [6]", "value": "−"}, {"measurement": "Number of Syncitia in the Culture (wells), J4", "setting": "[1]; [6]", "value": "+"}, {"measurement": "Number of Syncitia in the Culture (wells), J5", "setting": "[1]; [6]", "value": "++"}, {"measurement": "Number of Syncitia in the Culture (wells), J6", "setting": "[1]; [6]", "value": "T"}, {"measurement": "Number of Syncitia in the Culture (wells), J3", "setting": "[1]; During infection", "value": "−"}, {"measurement": "Number of Syncitia in the Culture (wells), J4", "setting": "[1]; During infection", "value": "− and (+)"}, {"measurement": "Number of Syncitia in the Culture (wells), J5", "setting": "[1]; During infection", "value": "− and ++"}, {"measurement": "Number of Syncitia in the Culture (wells), J6", "setting": "[1]; During infection", "value": "++ and T"}, {"measurement": "wells inhibited", "setting": "[1]; cells treated before viral infection", "value": "2 wells out of 2 inhibited"}, {"measurement": "Number of CEM cells", "setting": "[2]; Day 1, 125 μg/mL", "value": "500000 mL⁻¹ and 900000 mL⁻¹"}, {"measurement": "Number of CEM cells", "setting": "[2]; Day 1, 250 μg/mL", "value": "500000 mL⁻¹ and 900000 mL⁻¹"}, {"measurement": "Number of CEM cells", "setting": "[2]; Day 1, 1000 μg/mL", "value": "800000 mL⁻¹ and 500000 mL⁻¹"}, {"measurement": "Number of CEM cells", "setting": "[2]; Day 2, 125 μg/mL", "value": "1.5e+06 mL⁻¹ and 1e+06 mL⁻¹"}, {"measurement": "Number of CEM cells", "setting": "[2]; Day 2, 250 μg/mL", "value": "1.3e+06 mL⁻¹ and 1.4e+06 mL⁻¹"}, {"measurement": "Number of CEM cells", "setting": "[2]; Day 2, 500 μg/mL", "value": "1.3e+06 mL⁻¹ and 1.7e+06 mL⁻¹"}, {"measurement": "Number of CEM cells", "setting": "[2]; Day 2, 1000 μg/mL", "value": "1.3e+06 mL⁻¹ and 1.7e+06 mL⁻¹"}, {"measurement": "Number of CEM cells", "setting": "[2]; Day 3, 125 μg/mL", "value": "2.3e+06 mL⁻¹ and 2.1e+06 mL⁻¹"}, {"measurement": "Number of CEM cells", "setting": "[2]; Day 3, 250 μg/mL", "value": "1.9e+06", "unit": "mL⁻¹"}, {"measurement": "Number of CEM cells", "setting": "[2]; Day 3, 500 μg/mL", "value": "2.1e+06 mL⁻¹ and 1.5e+06 mL⁻¹"}, {"measurement": "Number of CEM cells", "setting": "[2]; Day 3, 1000 μg/mL", "value": "2e+06 mL⁻¹ and 2.7e+06 mL⁻¹"}, {"measurement": "inhibition of RT", "setting": "[3]; 2.5 μg/mL", "value": 6, "unit": "%"}, {"measurement": "inhibition of RT", "setting": "[3]; 3 μg/mL", "value": 8, "unit": "%"}, {"measurement": "inhibition of RT", "setting": "[4]; 0.6 μg/mL", "value": 11, "unit": "%"}, {"measurement": "inhibition of RT", "setting": "[4]; 0.8 μg/mL", "value": 18, "unit": "%"}, {"measurement": "inhibition of RT", "setting": "[5]; 0.6 μg/mL", "value": "does not produce any inhibition at all"}, {"measurement": "inhibition of RT", "setting": "[5]; 0.8 μg/mL", "value": "still does not induce any inhibition"}]}]}
